Source: patent publication US20130123358A1, “Metabolic Benefits to Butyrate as a Chronic Diet Supplement” (priority 2009, published 2013)

How the values were obtained:
HDAC [1] = experiment: Histone deacetylase assay on muscle nuclear extracts of treated mice; assay type: in vivo, mouse; conditions: butyrate 5% w/w in HFD, 16 weeks on HFD, muscle nuclear extracts
Experimental: Histone deacetylase assay were conducted according to the instruction from the manufacturer (#17-320, Upstate). Briefly, 10 ug of muscle nuclear extract (as an enzyme) was incubated with [3H]-acetyl CoA (#TRK688, Amersham) radio labeled histone H4 peptide (25,000 CPM, as a substrate) at 37° C. for 12 hours by shaking Released [3H]-acetate was measured using a scintillation counter. The nuclear extract was prepared according to a protocol described elsewhere (17). The muscle tissues were collected and snap-frozen in liquid nitrogen within 2 min of cervical dislocation of mice. Tissue samples were stored at −80° C. until further processing. The muscle sample of 200˜300 mg was cut into small pieces on dry ice and homogenized in 1 ml of lysate buffer. After centrifugation at 10,000 rpm for 1 minute at 4° C., the nucleus was pelleted and collected. After being washed, the nucleus pellet was treated with extraction buffer. The supernatant was collected for nuclear protein after centrifugation at 14,000 rpm for 5 minutes at 4° C.
Without wishing to be bound by this theory, one activity of butyrate could be related to inhibition of HDAC. Sodium butyrate inhibits the class I and class II histone deacetylases (HDACs). To test this possibility, HDAC activity was examined in the skeletal muscle of mice at 16 weeks on HFD (FIG. 7G). The assay was conducted with the nuclear extracts of muscle samples. […]

[2] = tested on: C57BL/6J mice on high fat diet; experiment: Blood lipids and TNF-a in HFD mice; assay type: in vivo, mouse
Experimental: The serum fatty acids including butyrate were examined using a protocol described elsewhere (18), and as described below in Example 10. The fatty acids in feces were determined using a protocol as described by Schwarz (19). Triglyceride and cholesterol were measured in the whole blood with the Cardiochek portable test system.
Levels of cholesterol, total triglyceride and inflammation cytokines (TNF-a) were elevated in the blood of dietary obese mice. With 5% SB supplementation, these risk factors for cardiovascular disease were all reduced in the mice (FIG. 10A-E). Blood samples were taken from control and butyrate-supplemented mice at 10 weeks on HFD. The cholesterol, HDL (high density lipoprotein), LDL (low density lipoprotein), and triglyceride were measured with cholesterol reagent kit (cat #. 80015, Rainchem, San Diego, Calif.), and the Cardiochek whole blood test system (Polymer Technology Systems, Inc. IN). Data are presented as means±SEM (n=6). **P<0.001 by Student's t test.

liver cells = conditions: isolated rat liver; cited from earlier work
L6 muscle cells = experiment: Immunoblot of L6 myotubes; assay type: cell-based; conditions: 500 μM sodium butyrate, 4 hours
Experimental: To further test the effect of butyrate on muscle, AMPK and PGC-1α were assayed in L6 muscle cells treated with butyrate. Differentiated L6 myotubes were starved in 0.25% BSA DMEM for overnight. The cells were treated with 500 μM of sodium butyrate for 4 hours and analyzed in an immunoblot. […] In the same culture, the PGC-1α protein was increased (FIG. 6A).

pigs = conditions: dietary; cited from earlier work
3T3-L1 cells = experiment: Adipogenesis in 3T3-L1 cells (qRT-PCR, Oil red O); assay type: cell-based
Experimental: The epididymal fat pad was examined to test this effect of butyrate. The tissue was collected at 13 weeks on HFD (18 weeks in age) and used to make a tissue slide (FIG. 3A). After H&E staining, the slide was photographed under a microscope at magnification 20× (FIG. 3A). Gene expression was determined by qRT-PCR at day 8 after induction of cell differentiation of 3T3-L1 cells. Butyrate was used at 100 uM during induction of adipogenesis. Triglycerides in the 3T3-L1 mature adipocyte cells were quantified using Oil red 0 staining at the day 8 post-induction of differentiation (FIG. 3C). In addition, levels of mRNA for leptin, adiponectin, F4/80 (macrophage marker), TNF-α, and iNOS were determined in the epididymal fat and their relative levels are presented in bar figures (FIGS. 3D-3H). In FIGS. 3A-3H, data are represented as mean±SE (n=8). *P<0.05, **P<0.001.
To confirm the butyrate effect on adipocytes, 3T3-L1 cells were used to study butyrate activity in vitro. The cells were treated with butyrate during induction of adipogenesis, which was determined by expression of adipocyte-specific genes and triglyceride amount. […] However, expression of leptin was reduced by butyrate (FIG. 3B). The reduction may be a result of a decrease in triglyceride accumulation in the differentiated 3T3-L1 adipocytes (FIG. 3C). The triglyceride level was reduced 50% in the cells treated by butyrate.

HDAC [3] = experiment: Histone Deacetylase Assay Kit, inhibition by butyrate isoforms; conditions: Histone Deacetylase Assay Kit (Upstate), FIG. 8
Description: Several isoforms of butyrate were purchased (Sigma Aldrich Chemicals, St. Louis, Mo.) and tested for inhibitory activity of HDAC, using a Histone Deacetylase Assay Kit (Upstate Biotechnology, Lake Placid, N.Y.).

[4] = butyrate 100 uM during induction of adipogenesis, qRT-PCR day 8

## CCCC(=O)[O-].[Na+] [sodium butyrate]
HDAC [1]
  HDAC activity in skeletal muscle, reduction: 50%
[2]; 5% SB in HFD, 10 weeks, blood
  LDL, reduction vs control: 41%
  Triglyceride, reduction vs control: 40%
  total cholesterol, reduction vs control: 25%
[2]; 5% SB in HFD, 10 weeks, blood, Luminex
  TNF-a, reduction vs control: 70%
[2]; butyrate 5% w/w in HFD
  blood total fatty acids: decreased
Liver cells
  energy metabolism (liver cells): impairment
L6 muscle cells
  AMPK phosphorylation: increased
  PGC-1α protein: increased
  p38 phosphorylation: increased
pigs
  daily body mass gain: increase
3T3-L1 cells; [4]
  adipocyte-specific markers (PPARδ, aP2, SREBP, and adiponectin): not reduced
  expression of leptin: reduced
3T3-L1 cells; butyrate 100 uM, Oil red O, day 8 post-induction
  triglyceride level, reduction: 50%
HDAC [3]
  inhibitory activity of HDAC: inhibited HDAC
